{"source": "patent US9526785B2", "about": "“Pharmaceuticals for oral delivery” (Enteris BioPharma, Inc., priority 2013, dated 2016)", "origin": "cited, not measured here", "key": {"[1]": {"tested_on": "Methicillin-Resistant Staphylococcus aureus (MRSA), Stenotrophomonas maltophilia, Haemophilus influenzae, and Neisseria gonorrhoeae", "conditions": "reported values; cited from earlier work"}, "[2]": {"conditions": "known formulations; cited from earlier work"}}, "data": [{"molecule": "CN(C)c1cc(NC(=O)CNC(C)(C)C)c(O)c2c1C[C@H]1C[C@H]3[C@H](N(C)C)C(O)=C(C(N)=O)C(=O)[C@@]3(O)C(O)=C1C2=O", "note": "[Tigecycline]", "values": [{"measurement": "MIC", "setting": "[1]", "value": 2, "unit": "µg/mL"}, {"measurement": "maximal oral bioavailablity % (% F)", "setting": "[2]", "value": "less than 5%"}]}]}
